Where a name gives a salt, the structure may show the parent alone.
Experiments:
[1] = Canine intravenous infusion model; type: in vivo
[2] = tested on: Platelet aggregation in dog PRP; assay: In-Vitro Platelet Aggregation in PRP (ADP induced); type: cell-based; conditions: Canis lupus familiaris; for IC50: ADP 50 μm, 37° C.; for inhibition at 10 µM: ADP, test concentration 1 × 10^-5
Experimental: In-Vitro Platelet Aggregation in PRP
(§1) Healthy male or female dogs were fasted for 8 hours prior to drawing blood; then 30 ml whole blood was collected using a butterfly needle and 30 cc plastic syringe with 3 ml of 0.129M buffered sodium citrate (3.8%). The syringe was rotated carefully as blood was drawn to mix the citrate. Platelet-rich plasma (PRP) was prepared by centrifugation at 975×g for 3.17 minutes at room temperature, allowing the centrifuge to coast to a stop without braking. The PRP was removed from the blood with a plastic pipette and placed in a plastic capped, 50 ml Corning conical sterile centrifuge tube which was held at room temperature. Platelet poor plasma (PPP) was prepared by centrifuging the remaining blood at 2000×g for 15 minutes at room temperature allowing the centrifuge to coast to a stop without braking. The PRP was adjusted with PPP to a count of 2-3×10^8 platelets per ml. 400 for 5-(p-cyanophenyl)pentanoic acid in Section C of Example 1.
as §1, with “400 μl of the PRP preparation and 50 μl of the compound to be tested or saline were preincubated” for “400”, “1 minute at 37° C.” for “5-(p-cyanophenyl)pentanoic acid”, “a BioData aggregometer (BioData, Horsham, Pa.). 50 μl” for “Section C”, “adenosine 5'diphosphate (ADP) (50 μm final concentration) was added to the cuvettes and the aggregation was monitored for 1 minute. All compounds are tested in duplicate. Results are calculated as follows:” for “Example 1.”
Percent of control=[(maximal OD minus initial OD of compound) divided by
(maximal OD minus initial OD of control saline)]×100. The %
inhibition=100-(percent of control).

[3] = tested on: ex vivo collagen induced platelet aggregation; assay: Inhibition of ex vivo collagen induced aggregation; type: in vivo, dog (Beagle); conditions: dog, IV
Experimental: INHIBITION OF EX VIVO COLLAGEN INDUCED AGGREGATION BY COMPOUNDS OF THE INVENTION
PURPOSE--The purpose of this assay is to determine the effects of antiplatelet compounds on ex vivo collagen induced platelet aggregation when administered either intravenously or orally to dogs.
Pretreatment (control) blood samples are drawn from either conscious or anesthetized dogs (Beagles) and centrifuged to prepare platelet rich plasma (PRP). Aggregatory response to collagen is measured in an aggregometer and used as Control. Compounds are administered, either intragasterically (either by capsule or stomach tube or intravenously. Blood samples are drawn at predetermined intervals after compound administration, PRP prepared and aggregation to collagen determined. Compound inhibition of aggregation is determined by comparing the aggregation response after compound administration to the pretreatment response. The study is continued for a maximum of 24 hours or until the platelet aggregation returns to control levels. (If aggregation is still inhibited after 7 hours, a blood sample is drawn the following morning and tested.) Duration of activity is determined by the length of time platelet aggregation is inhibited after compound administration.

[4] = molecular target: T1, fibrinogen binding to platelets (gpIIb/IIIa) (Homo sapiens, UniProt P05106+P08514); assay: Fibrinogen Binding Assay (125I-fibrinogen binding to ADP-activated platelets); conditions: ADP 10 μM, 125I-fibrinogen 0.3 μM, 40 min at 37° C., read-out: Human Fg binding IC50
T1 construct: endogenous in cells
T1 sequence (P08514 32-887 limits assumed): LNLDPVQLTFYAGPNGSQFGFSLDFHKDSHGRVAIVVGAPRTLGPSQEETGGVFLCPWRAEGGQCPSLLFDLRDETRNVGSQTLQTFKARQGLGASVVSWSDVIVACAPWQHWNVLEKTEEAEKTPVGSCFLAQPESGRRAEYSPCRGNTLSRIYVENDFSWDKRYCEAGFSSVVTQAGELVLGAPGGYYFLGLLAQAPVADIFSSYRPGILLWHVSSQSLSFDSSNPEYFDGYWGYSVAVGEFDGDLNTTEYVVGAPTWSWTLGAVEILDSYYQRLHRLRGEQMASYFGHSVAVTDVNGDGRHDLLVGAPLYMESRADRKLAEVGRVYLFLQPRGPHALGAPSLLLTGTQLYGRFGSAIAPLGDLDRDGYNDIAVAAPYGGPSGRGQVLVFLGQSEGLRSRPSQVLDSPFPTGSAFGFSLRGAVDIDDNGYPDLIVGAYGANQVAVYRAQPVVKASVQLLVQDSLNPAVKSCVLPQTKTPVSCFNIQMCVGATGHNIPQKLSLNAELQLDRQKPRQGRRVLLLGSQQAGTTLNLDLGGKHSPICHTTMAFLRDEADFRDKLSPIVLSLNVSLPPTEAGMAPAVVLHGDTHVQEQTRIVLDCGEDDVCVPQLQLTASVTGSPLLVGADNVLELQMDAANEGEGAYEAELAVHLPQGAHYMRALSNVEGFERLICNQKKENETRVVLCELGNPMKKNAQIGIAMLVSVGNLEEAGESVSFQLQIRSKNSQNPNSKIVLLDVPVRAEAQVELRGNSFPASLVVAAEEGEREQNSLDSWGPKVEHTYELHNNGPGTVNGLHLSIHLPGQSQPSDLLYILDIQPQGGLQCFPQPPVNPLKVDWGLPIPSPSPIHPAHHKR
T1 sequence (P08514 891-1039 partner limits assumed): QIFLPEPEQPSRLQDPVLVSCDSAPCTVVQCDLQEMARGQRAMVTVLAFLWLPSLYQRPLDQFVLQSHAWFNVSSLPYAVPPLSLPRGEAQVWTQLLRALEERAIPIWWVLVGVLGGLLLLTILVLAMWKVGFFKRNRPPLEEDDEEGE
T1 sequence (P05106 27-788): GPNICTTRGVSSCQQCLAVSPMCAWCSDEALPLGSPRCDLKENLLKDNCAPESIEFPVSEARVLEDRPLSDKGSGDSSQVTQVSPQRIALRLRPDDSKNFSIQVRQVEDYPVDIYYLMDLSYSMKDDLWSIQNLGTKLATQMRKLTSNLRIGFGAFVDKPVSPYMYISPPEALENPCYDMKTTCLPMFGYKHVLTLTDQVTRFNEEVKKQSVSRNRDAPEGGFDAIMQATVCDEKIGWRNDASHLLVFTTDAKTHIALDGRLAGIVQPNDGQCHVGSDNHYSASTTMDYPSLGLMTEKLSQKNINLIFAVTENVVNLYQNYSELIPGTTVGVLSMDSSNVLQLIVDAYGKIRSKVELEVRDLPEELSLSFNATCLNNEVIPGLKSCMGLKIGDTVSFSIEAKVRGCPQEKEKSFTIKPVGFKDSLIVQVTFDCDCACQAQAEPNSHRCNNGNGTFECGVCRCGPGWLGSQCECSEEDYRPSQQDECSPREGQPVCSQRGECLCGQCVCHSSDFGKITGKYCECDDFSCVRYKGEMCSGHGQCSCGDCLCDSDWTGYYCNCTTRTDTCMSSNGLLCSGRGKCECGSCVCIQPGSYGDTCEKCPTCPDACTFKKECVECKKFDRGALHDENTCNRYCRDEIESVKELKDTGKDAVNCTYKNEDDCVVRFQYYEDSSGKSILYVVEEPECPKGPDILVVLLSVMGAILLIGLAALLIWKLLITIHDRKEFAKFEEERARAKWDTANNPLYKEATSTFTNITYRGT
Experimental: Fibrinogen binding was performed essentially as described by Plow et al., Blood 70, 110-115 (1987). Briefly, blood from humans who had not been given any antiplatelet drugs in the previous two weeks was collected into 1/10th volume of CCD buffer (100 mM sodium citrates, 136 mM glucose, pH 6.5). The blood was centrifuged for 3 min at 1000×g and platelet rich plasma was transferred to a plastic tube with a plastic pipet and placed on ice. After 15 minutes, 1/2 volume of ice cold CCD buffer was added and the sample was centrifuged at 900×g for 10 min at 2° C. The supernatant was decanted and the platelet pellet was gently resuspended in 1/2 the original volume of ice cold modified Tyrode's buffer (137 mM NaCl, 2.6 mM KCl, 12 mM NaHCO3, 5.5 mM glucose, 15 mM HEPES, 0.5% BSA, pH 7.4). After incubating for 30 minutes at 37° C., the platelet count was adjusted to 4×10^8 platelets/ml with modified Tyrode's buffer. To test samples (final concentration=1×10^8 platelets/ml) were added in sequence: ADP (10 μM), CaCl2 (2 mM), test compound, and ^125 I-fibrinogen (0.3 μM) to the aforesaid final concentrations in a volume of 200 μl. The samples were incubated for 40 min at 37° C. and 50 μl aliquots were centrifuged at 8,000×g through a 20% sucrose solution (400 μl). The tubes were quick frozen and the tips containing the platelet pellet were cut and assayed for bound ^125 I-fibrinogen by gamma scintillation counting. Specific binding was determined in each test by subtracting from the total binding the amount of ^125 I-fibrinogen bound in the presence of a 60-fold excess of unlabeled fibrinogen.

Q: For `N=C(N)c1ccc(CCCCC(=O)N[C@@H](CC(=O)O)C(=O)N[C@@H](Cc2ccccc2)C(=O)O)cc1` [N-[N-[5-[4-(aminoiminomethyl)phenyl]-1-oxopentyl]-L-α-aspartyl]-L-phenylalanine], which ED50 [1] is on record?
A: 0.32 µg/kg/min

Q: With `N=C(N)c1ccc(CCCCC(=O)N[C@@H](CC(=O)O)C(=O)N[C@@H](Cc2ccccc2)C(=O)O)cc1` [N-[N-[5-[4-aminoiminomethyl)phenyl-1-oxopentyl]-L-α-aspartyl]-L-phenylalanine, acetate salt] as the compound, how does the IC50 [2] read?
A: 53 nM

Q: And the inhibition at 10 µM [2]?
A: 100%

Q: And the “Ex-vivo collagen induced aggregation, Max % Inhibition” value ([3]; 0.003 mg/kg)?
A: 31%

Q: What about the “Ex-vivo collagen induced aggregation, Max % Inhibition” value ([3]; 0.006 mg/kg) of the same compound?
A: 84%

Q: What about the IC50 [4] of the same compound?
A: 8.3 nM

Q: For `N=C(N)c1cccc(/C=C\CCCC(=O)N[C@@H](CC(=O)O)C(=O)N[C@@H](Cc2ccccc2)C(=O)O)c1` [N-[N-[6-[3-(aminoiminomethyl)phenyl]-1-oxo-5Z-hexenyl]-L-α-aspartyl]-L-phenylalanine], which IC50 [2] is on record?
A: 4300 nM

Q: What about the inhibition at 10 µM [2] of the same compound?
A: 100%

Q: And the IC50 [4]?
A: 600 nM

Q: What does the source list for `N=C(N)c1ccc(C#CCCC(=O)N[C@@H](CC(=O)O)C(=O)N[C@@H](Cc2ccccc2)C(=O)O)cc1` [N-[5-[4-(aminoiminomethyl)phenyl]-1-oxo-4-pentynyl]-N-L-α-aspartyl-L-phenylalanine]?
A: IC50 [2]: 90 nM; inhibition at 10 µM [2]: 100%; Ex-vivo collagen induced aggregation, Max % Inhibition ([3]; 0.005 mg/kg): 29%; Ex-vivo collagen induced aggregation, Max % Inhibition ([3]; 0.01 mg/kg): 83%; Ex-vivo collagen induced aggregation, Max % Inhibition ([3]; 0.1 mg/kg): 100%; IC50 [4]: 6 nM

From patent US5481021A, “Phenyl amidines derivatives useful as platelet aggregation inhibitors” (G. D. Searle & Co., priority 1994, dated 1996)
